What was measured:
[1] = tested on: EGFR positive (MDA MB 468 and A431) and EGFR negative (MCF 7) cells; test: Cellular binding analysis by flow cytometry; format: cell-based, human; conditions: 100 nM, 60 min at 4° C., AF488-labeled detection antibody
[2] = Thermal unfolding by nanoDSF; format: physicochemical; conditions: PBS pH 6.8, 20 to 95° C. at 1° C./min
Protocol: FIG. 10 Thermal stability of Fcabs and huFc control molecule. The first derivative of thermal unfolding curves (A) as well as the unfolding transition midpoints (Tm) (B) are shown. To determine thermal unfolding, Fcabs and huFc (PBS pH 6.8) were loaded into nanoDSF grade standard capillaries which were then transferred into a Prometheus NT.PLEX nanoDSF (NanoTemper Technologies) instrument. Samples were subjected to a linear thermal ramp from 20° C. to 95° C. at a slope of 1° C./min with simultaneous recording of fluorescence at 350 and 330 nm. Unfolding transition midpoints (Tm) were determined from the first derivative of the fluorescence ratio 350 nm/330 nm. All samples were measured in duplicates. n.d.—not detected
As a negative control, we included an unmodified human Fc (huFc) fragment. As EGFR-binding references, a Cetuximab-based full length IgG (C-IgG) and a Cetuximab-derived Fab (C-Fab) fragment, both equipped with a sortase A (SrtA) recognition motif (LPETG) at the C-terminal end of the light chain, were included. […] Moreover, we evaluated functional and selective cellular binding of the purified constructs (FIG. 11, FIG. 12). […] To ensure comparability between individual fluorescence intensities resulting from differently labeled constructs, the fluorescence signals were normalized. […]

For “huFc: Modified human IgG1 Fc fragment (D265A), negative control, SEQ ID No. 7”, the cellular binding [1] was “do not show any binding” and the “unfolding transition midpoint Tm,1” value [2] was 66 °C.
